According to article PMC10926851 (Journal of medicinal chemistry, 2021):
“Also recorded” adds a separate entry of the source. Like-named read-outs stand apart in the source and are kept apart here.

How the values were obtained:
HDAC4 = HDAC4 (Homo sapiens, UniProt P56524); test: HDAC4 activity assay; format: biochemical; settings: HDAC4 vs HDAC8
HDAC8 = biological target: T1, HDAC8 (Homo sapiens, UniProt Q9BY41); test: HDAC8 activity assay; format: biochemical; settings: at tested concentrations
T1 sequence (Q9BY41 1-377): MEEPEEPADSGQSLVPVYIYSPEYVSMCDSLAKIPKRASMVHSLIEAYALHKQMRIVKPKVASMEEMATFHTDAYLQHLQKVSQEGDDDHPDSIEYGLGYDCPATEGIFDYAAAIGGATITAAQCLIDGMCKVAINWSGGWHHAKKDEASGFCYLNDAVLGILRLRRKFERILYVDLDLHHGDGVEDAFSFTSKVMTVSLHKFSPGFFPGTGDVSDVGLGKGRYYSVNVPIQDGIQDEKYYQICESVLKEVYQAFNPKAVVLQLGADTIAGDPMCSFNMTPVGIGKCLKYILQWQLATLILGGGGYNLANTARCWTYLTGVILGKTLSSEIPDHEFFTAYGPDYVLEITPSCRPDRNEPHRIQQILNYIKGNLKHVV

[1] = tested on: HeLa (cervical adenocarcinoma); settings: for SCI (CC50 HS-27/CC50 cancer), HeLa: selective cytotoxicity index
[2] = tested on: HS-27 (normal foreskin fibroblasts); test: DNS cytotoxicity assay, HS-27; format: cell-based, human; settings: 72 h, noncancerous cells
[3] = tested on: HeLa (cervical adenocarcinoma); test: cells; settings: Homo sapiens, 72 h, read-out: % cell death at 10 μM, HeLa
[4] = tested on: Ramos (Burkitt's B-cell lymphoma); settings: selective cytotoxicity index
[5] = tested on: CCRF-CEM (T-cell leukemia); settings: for cytotoxicity at 50 μM, CEM (printed in CC50 column): 72 h; for SCI (CC50 HS-27/CC50 cancer), CEM: selective cytotoxicity index
[6] = tested on: CEM (T cell leukemia) xenografts; settings: mouse, in vivo
CCRF-CEM cells = test: Western blotting; format: cell-based, human; settings: 10 μM, 5 h
PPARγ = biological target: T2, PPARγ (Homo sapiens, UniProt P37231); test: PPARγ-GAL4 transactivation assay on HepG2 cells; format: cell-based; settings: HepG2, 25, 5 and 1 μM
T2 sequence (P37231 238-503 limits assumed): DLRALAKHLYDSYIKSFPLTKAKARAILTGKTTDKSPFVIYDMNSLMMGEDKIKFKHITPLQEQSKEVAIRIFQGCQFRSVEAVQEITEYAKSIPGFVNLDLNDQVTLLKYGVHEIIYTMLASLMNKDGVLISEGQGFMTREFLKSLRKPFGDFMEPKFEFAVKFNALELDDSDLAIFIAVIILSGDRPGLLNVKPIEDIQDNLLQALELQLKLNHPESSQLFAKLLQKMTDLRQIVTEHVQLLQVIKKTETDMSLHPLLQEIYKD

Chain of HDAC4 (P56524 655-1084 limits assumed): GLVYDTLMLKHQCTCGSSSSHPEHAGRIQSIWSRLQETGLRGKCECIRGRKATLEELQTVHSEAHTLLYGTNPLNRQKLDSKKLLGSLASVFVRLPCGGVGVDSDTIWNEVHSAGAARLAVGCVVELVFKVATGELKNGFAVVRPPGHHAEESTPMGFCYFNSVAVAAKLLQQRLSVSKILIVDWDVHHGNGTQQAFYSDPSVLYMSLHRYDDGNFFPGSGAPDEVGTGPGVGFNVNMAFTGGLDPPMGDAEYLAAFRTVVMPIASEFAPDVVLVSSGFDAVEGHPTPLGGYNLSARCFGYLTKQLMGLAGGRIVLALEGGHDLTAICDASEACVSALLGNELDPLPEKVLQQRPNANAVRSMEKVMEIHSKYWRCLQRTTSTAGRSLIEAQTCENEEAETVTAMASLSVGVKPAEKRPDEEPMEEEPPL

Cc1cccc(NC(=O)COc2ccc3cc(/C=C4/SC(=O)NC4=O)ccc3c2)n1 [7n, 2-((6-((2,4-Dioxothiazolidin-5-ylidene)methyl)naphthalen-2-yl)-oxy)-N-(6-methylpyridin-2-yl)acetamide]
potency toward HDAC4 over HDAC8 (from IC50 values) (HDAC4): at least 2 fold

Cc1cccc2sc(NC(=O)COc3ccc4cc(/C=C5/SC(=O)NC5=O)ccc4c3)nc12 [7x, 2-((6-((2,4-Dioxothiazolidin-5-ylidene)methyl)naphthalen-2-yl)-oxy)-N-(4-methylbenzo[d]thiazol-2-yl)acetamide]
potency toward HDAC4 over HDAC8 (from IC50 values) (HDAC4): at least 2 fold

O=C(COc1ccc2cc(/C=C3/SC(=O)NC3=O)ccc2c1)Nc1ccc(F)cc1 [7b, 2-((6-((2,4-Dioxothiazolidin-5-ylidene)methyl)naphthalen-2-yl)-oxy)-N-(4-fluorophenyl)acetamide]
potency toward HDAC4 over HDAC8 (from IC50 values) (HDAC4): at least 2 fold

O=C(COc1ccc2cc(/C=C3/SC(=O)NC3=O)ccc2c1)Nc1cc(Cl)cc(C(F)(F)F)c1 [7p, N-(3-Chloro-5-(trifluoromethyl)phenyl)-2-((6-((2,4-dioxothiazoli-din-5-ylidene)methyl)naphthalen-2-yl)oxy)acetamide]
HDAC8 inhibition (in words) (HDAC8): did not show HDAC8 inhibition

O=C(COc1ccc2cc(/C=C3/SC(=O)NC3=O)ccc2c1)Nc1ccccc1Oc1ccccc1 [7j, 2-((6-((2,4-Dioxothiazolidin-5-ylidene)methyl)naphthalen-2-yl)-oxy)-N-(2-phenoxyphenyl)acetamide]
SCI (CC50 HS-27/CC50 cancer), HeLa [1]: >10
% cell death at 10 μM, HS-27 [2]: 0%
cytotoxicity at 10 µM [3]: > 40%
SCI (CC50 HS-27/CC50 cancer), Ramos [4]: >10

CCc1ccc(CCOc2ccc(CC3SC(=O)NC3=O)cc2)nc1 (stereo not shown) [Pioglitazone, reference compound]
cytotoxicity at 50 μM, CEM (printed in CC50 column) [5]: 0% @ 50 μM
cytotoxicity at 50 μM, CEM (printed in CC50 column) ([5]; listed as pioglitazone): no cytotoxic effect
cytotoxicity at 10 μM, HeLa (printed in CC50 column) ([1]; 10 μM, 72 h): 0% @ 10 μM

O=C(COc1ccc2cc(/C=C3/SC(=O)NC3=O)ccc2c1)Nc1cccc(C(F)(F)F)c1 [7e, 2-((6-((2,4-Dioxothiazolidin-5-ylidene)methyl)naphthalen-2-yl)-oxy)-N-(3-(trifluoromethyl)phenyl) acetamide]
% cell death at 10 μM, HS-27 [2]: >40%
HDAC8 inhibition (in words) (HDAC8): did not show HDAC8 inhibition

COc1cccc(NC(=O)COc2ccc3cc(/C=C4/SC(=O)NC4=O)ccc3c2)c1 [7g, 2-((6-((2,4-Dioxothiazolidin-5-ylidene)methyl)naphthalen-2-yl)-oxy)-N-(3-methoxyphenyl)acetamide]
SCI (CC50 HS-27/CC50 cancer), HeLa [1]: >10
potency toward HDAC4 over HDAC8 (from IC50 values) (HDAC4): at least 2 fold
cytotoxicity at 10 µM [3]: > 40%
SCI (CC50 HS-27/CC50 cancer), Ramos [4]: >10

O=C(COc1ccc2cc(/C=C3/SC(=O)NC3=O)ccc2c1)Nc1cccc(Cl)c1 [7f, N-(3-Chlorophenyl)-2-((6-((2,4-dioxothiazolidin-5-ylidene)-methyl)naphthalen-2-yl)oxy)acetamide]
SCI (CC50 HS-27/CC50 cancer), Ramos [4]: >10
HDAC8 inhibition (in words) (HDAC8): did not show HDAC8 inhibition

O=C(COc1ccc2cc(/C=C3/SC(=O)NC3=O)ccc2c1)Nc1ccc(Br)cc1 [7o, N-(4-Bromophenyl)-2-((6-((2,4-dioxothiazolidin-5-ylidene)-methyl)naphthalen-2-yl)oxy)acetamide]
SCI (CC50 HS-27/CC50 cancer), HeLa [1]: >10

Cc1cc(Br)ccc1NC(=O)COc1ccc2cc(/C=C3/SC(=O)NC3=O)ccc2c1 [7l, N-(4-Bromo-2-methylphenyl)-2-((6-((2,4-dioxothiazolidin-5-ylidene)methyl)naphthalen-2-yl)oxy)acetamide]
SCI (CC50 HS-27/CC50 cancer), HeLa [1]: >10

Cc1ccc(NC(=O)COc2ccc3cc(/C=C4/SC(=O)NC4=O)ccc3c2)cc1 [7c, 2-((6-((2,4-Dioxothiazolidin-5-ylidene)methyl)naphthalen-2-yl)-oxy)-N-(p-tolyl)acetamide]
SCI (CC50 HS-27/CC50 cancer), CEM [5]: 14.4
SCI (CC50 HS-27/CC50 cancer), HeLa [1]: 3.9
SCI (CC50 HS-27/CC50 cancer), Ramos [4]: 5.8
body weights of the mice [6]: not significantly affected
p53 expression (CCRF-CEM cells): no upregulated expression was observed
c-Myc protein expression (CCRF-CEM cells; vs pioglitazone 10 μM): downregulation of the c-Myc protein much greater than positive control pioglitazone
cleaved caspase-3 expression (CCRF-CEM cells; vs pioglitazone 10 μM): increased expression of cleaved caspase-3

O=C(COc1ccc2cc(/C=C3/SC(=O)NC3=O)ccc2c1)Nc1ccc(Cl)c(Cl)c1 [7h, N-(3,4-Dichlorophenyl)-2-((6-((2,4-dioxothiazolidin-5-ylidene)-methyl)naphthalen-2-yl)oxy)acetamide]
HDAC8 inhibition (in words) (HDAC8): inactive; also recorded: not active

COc1cccc2c1C(=O)c1c(O)c3c(c(O)c1C2=O)C[C@@](O)(C(=O)CO)C[C@@H]3O[C@H]1C[C@H](N)[C@H](O)[C@H](C)O1 [doxorubicin, reference compound]
body weights of the mice [6]: not significantly affected

O=C(COc1ccc2cc(/C=C3/SC(=O)NC3=O)ccc2c1)Nc1ccc(Br)cc1F [7r, N-(4-Bromo-2-fluorophenyl)-2-((6-((2,4-dioxothiazolidin-5-ylidene)methyl)naphthalen-2-yl)oxy)acetamide]
HDAC8 inhibition (in words) (HDAC8): inactive

O=C(COc1ccc2cc(/C=C3/SC(=O)NC3=O)ccc2c1)Nc1cccc(F)n1 [7s, 2-((6-((2,4-Dioxothiazolidin-5-ylidene)methyl)naphthalen-2-yl)-oxy)-N-(6-fluoropyridin-2-yl)acetamide]
potency toward HDAC4 over HDAC8 (from IC50 values) (HDAC4): at least 2 fold

O=C(COc1ccc2cc(/C=C3/SC(=O)NC3=O)ccc2c1)Nc1c(F)cc(F)cc1Br [7i, N-(2-Bromo-4,6-difluorophenyl)-2-((6-((2,4-dioxothiazolidin-5-ylidene)methyl)naphthalen-2-yl)oxy)acetamide]
SCI (CC50 HS-27/CC50 cancer), CEM [5]: 4.2
SCI (CC50 HS-27/CC50 cancer), HeLa [1]: 3.8
SCI (CC50 HS-27/CC50 cancer), Ramos [4]: 4.2
HDAC8 inhibition (in words) (HDAC8): inactive

CCOc1ccc2nc(NC(=O)COc3ccc4cc(/C=C5/SC(=O)NC5=O)ccc4c3)sc2c1 [7y, 2-((6-((2,4-Dioxothiazolidin-5-ylidene)methyl)naphthalen-2-yl)-oxy)-N-(6-ethoxybenzo[d]thiazol-2-yl)acetamide]
potency toward HDAC4 over HDAC8 (from IC50 values) (HDAC4): at least 2 fold

O=C(COc1ccc2cc(/C=C3/SC(=O)NC3=O)ccc2c1)Nc1ccc(Br)c(Br)c1 [7v, N-(3,4-Dibromophenyl)-2-((6-((2,4-dioxothiazolidin-5-ylidene)-methyl)naphthalen-2-yl)oxy)acetamide]
PPARγ transactivation activity (in words) (PPARγ): poor activity
HDAC8 inhibition (in words) (HDAC8): not active

O=C(COc1ccc2cc(/C=C3/SC(=O)NC3=O)ccc2c1)Nc1ccc(F)cc1F [7k, N-(2,4-Difluorophenyl)-2-((6-((2,4-dioxothiazolidin-5-ylidene)-methyl)naphthalen-2-yl)oxy)acetamide]
HDAC8 inhibition (in words) (HDAC8): inactive

O=C(COc1ccc2cc(/C=C3/SC(=O)NC3=O)ccc2c1)Nc1ccccc1 [7a, 2-((6-((2,4-Dioxothiazolidin-5-ylidene)methyl)naphthalen-2-yl)-oxy)-N-phenylacetamide]
potency toward HDAC4 over HDAC8 (from IC50 values) (HDAC4): at least 2 fold

O=C(COc1ccc2cc(/C=C3/SC(=O)NC3=O)ccc2c1)Nc1nc2ccccc2s1 [7w, N-(Benzo[d]thiazol-2-yl)-2-((6-((2,4-dioxothiazolidin-5-ylidene)-methyl)naphthalen-2-yl)oxy)acetamide]
potency toward HDAC4 over HDAC8 (from IC50 values) (HDAC4): at least 2 fold

Cc1ccc(NC(=O)COc2ccc3cc(/C=C4/SC(=O)NC4=O)ccc3c2)cc1Cl [7u, N-(3-Chloro-4-methylphenyl)-2-((6-((2,4-dioxothiazolidin-5-ylidene)methyl)naphthalen-2-yl)oxy)acetamide]
HDAC8 inhibition (in words) (HDAC8): not active
